Laboratory results: article PMC3433420 (PLoS ONE, 2012)
pKd: −log10 of the molar value. Residues, ends and D or L forms follow the SMILES beside them.

What was measured:
PIK3R1-N SH2 domain = target: T1, PIK3R1-N SH2 domain (Homo sapiens, UniProt P27986); experiment: biochemical; assay type: binding; settings: high-confidence ErbB interactions
T1 construct: thioredoxin; made in house; host or cells: E. coli BL21(DE3)pLysS

PTK6 SH2 domain = target: T2, PTK6 SH2 domain (Homo sapiens, UniProt Q13882); experiment: FP saturation binding assay; settings: high-confidence ErbB interactions
T2 construct: from the PTK6 SH2 domain; 6X His; thioredoxin; made in house; host or cells: E. coli BL21(DE3)pLysS
T2 sequence (Q13882 78-170 limits assumed): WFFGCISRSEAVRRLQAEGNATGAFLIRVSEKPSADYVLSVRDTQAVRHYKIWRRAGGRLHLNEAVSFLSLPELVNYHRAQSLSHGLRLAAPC
Summary of the method: (§1)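 Rhodamine-labeled phosphopeptides (10 nM final) titrated with SH2 domain protein (0.002–10 µM, 12 points) in 20 mM HEPES, 100 mM KCl, 0.1% Tween-20, 5 mM DTT, pH 7.8; 20 min, room temperature, dark. FP read at 530/555 nm; KD fitted by nonlinear regression after thioredoxin background correction and outlier removal.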

[1] = target: T3, RASA1-NC tandem SH2 domains (Homo sapiens, UniProt P20936); experiment: FP saturation binding assay; settings: high-confidence ErbB interactions
T3 construct: the tandem protein was included in our analysis with all internal amino acids linking the domains; 6X His; thioredoxin; made in house; host or cells: E. coli BL21(DE3)pLysS
T3 sequence (P20936 181-441 limits assumed): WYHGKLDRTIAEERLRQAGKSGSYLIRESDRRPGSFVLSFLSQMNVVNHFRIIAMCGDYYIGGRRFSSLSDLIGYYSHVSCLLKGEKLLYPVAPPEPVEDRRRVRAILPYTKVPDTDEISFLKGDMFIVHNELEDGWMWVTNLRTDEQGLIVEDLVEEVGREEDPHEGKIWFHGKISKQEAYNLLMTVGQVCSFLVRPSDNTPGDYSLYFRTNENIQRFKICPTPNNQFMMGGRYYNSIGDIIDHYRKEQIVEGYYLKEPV
Summary of the method: as §1

[2] = target: PIK3R2-NC tandem SH2 domains (Homo sapiens, UniProt O00459); experiment: FP saturation binding assay
Sequence of PIK3R2-NC tandem SH2 domains (O00459 330-716 limits assumed): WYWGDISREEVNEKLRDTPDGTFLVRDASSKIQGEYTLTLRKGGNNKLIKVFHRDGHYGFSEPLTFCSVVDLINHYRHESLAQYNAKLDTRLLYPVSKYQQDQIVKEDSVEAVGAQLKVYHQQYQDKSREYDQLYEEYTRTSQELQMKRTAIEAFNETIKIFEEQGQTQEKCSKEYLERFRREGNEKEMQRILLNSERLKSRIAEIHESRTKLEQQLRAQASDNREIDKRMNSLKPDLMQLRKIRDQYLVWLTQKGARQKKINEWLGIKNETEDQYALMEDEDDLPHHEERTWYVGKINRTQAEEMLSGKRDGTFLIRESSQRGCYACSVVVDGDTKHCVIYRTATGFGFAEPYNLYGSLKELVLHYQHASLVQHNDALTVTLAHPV

[3] = target: T4, PTPN11-NC tandem SH2 domains (Homo sapiens, UniProt Q06124); experiment: FP saturation binding assay
T4 sequence (Q06124 6-216 limits assumed): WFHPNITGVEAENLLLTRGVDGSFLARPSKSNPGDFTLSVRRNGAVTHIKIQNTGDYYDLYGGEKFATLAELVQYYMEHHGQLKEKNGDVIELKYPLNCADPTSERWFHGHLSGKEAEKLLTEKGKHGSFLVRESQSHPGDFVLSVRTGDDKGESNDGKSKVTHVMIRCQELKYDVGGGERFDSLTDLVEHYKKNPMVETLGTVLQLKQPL

YES1 SH2 domain = target: T5, YES1 SH2 domain (Homo sapiens, UniProt P07947); experiment: FP saturation binding assay; settings: high-confidence ErbB interactions
T5 construct: 6X His; thioredoxin; made in house; host or cells: BL21(DE3)pLysS E. coli
T5 sequence (P07947 158-255 limits assumed): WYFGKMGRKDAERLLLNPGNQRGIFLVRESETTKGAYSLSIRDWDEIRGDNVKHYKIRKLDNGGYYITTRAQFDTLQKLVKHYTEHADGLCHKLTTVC
Summary of the method: as §1

PLCG1-C SH2 domain = target: T6, PLCG1-C SH2 domain (Homo sapiens, UniProt P19174); experiment: biochemical; assay type: binding; settings: high-confidence ErbB interactions
T6 construct: The 6X His-tagged SH2 domain proteins used in the assay, PLCG1-C, SHC4, VAV2; thioredoxin; made in house; host or cells: E. coli BL21(DE3)pLysS
T6 sequence (P19174 668-756 limits assumed): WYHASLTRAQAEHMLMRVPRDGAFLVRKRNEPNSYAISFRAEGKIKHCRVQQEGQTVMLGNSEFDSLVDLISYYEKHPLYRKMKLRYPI

[4] = Protein PIK3R1-N, FP saturation binding, mean over replicate hits
[5] = Protein YES1, FP saturation binding, mean over replicate hits
[6] = protein YES1, FP, mean of replicate hits

T1 sequence (P27986 333-428 limits assumed): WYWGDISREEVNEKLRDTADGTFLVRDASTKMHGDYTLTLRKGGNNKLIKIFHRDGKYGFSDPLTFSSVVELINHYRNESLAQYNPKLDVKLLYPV

Structure (SMILES): CC(C)C[C@H](NC(=O)[C@H](Cc1ccc(OP(=O)(O)O)cc1)NC(=O)[C@H](CCC(=O)O)NC(=O)[C@H](CCC(=O)O)NC(=O)[C@H](C)NC(=O)[C@@H](N)CC(=O)O)C(=O)N[C@H](C(=O)N1CCC[C@H]1C(=O)N[C@@H](CCC(N)=O)C(=O)N[C@@H](CCC(N)=O)C(=O)NCC(=O)N[C@@H](Cc1ccccc1)C(=O)N[C@@H](CC(=O)O)C(=O)O)C(C)C [ErbB2 1023 13-mer] (HELM PEPTIDE1{D.A.E.E.[O=C([C@H](Cc1ccc(OP(=O)(O)O)cc1)N[*:1])[*:2]].L.V.P.Q.Q.G.F.D}$$$$V2.0)
- pKd (PIK3R1-N SH2 domain; [4]): 4.80
- pKd (PTK6 SH2 domain; Protein PTK6, FP saturation binding, mean over replicate hits): 5.42
- pKd ([1]; Protein RASA1-NC, FP saturation binding, mean over replicate hits): 5.18
- pKd [2]: 5.22
- pKd [3]: 4.97

Structure (SMILES): CC(C)[C@H](NC(=O)[C@H](CC(=O)O)NC(=O)[C@@H]1CCCN1C(=O)[C@H](CCC(N)=O)NC(=O)[C@H](CC(N)=O)NC(=O)[C@@H](NC(=O)[C@H](Cc1ccc(OP(=O)(O)O)cc1)NC(=O)[C@H](CCC(=O)O)NC(=O)[C@@H]1CCCN1C(=O)[C@H](CCC(N)=O)NC(=O)[C@@H]1CCCN1)C(C)C)C(=O)N[C@@H](CCCNC(=N)N)C(=O)N[C@@H](CC(=O)O)C(=O)O [ErbB2 1139 13-mer] (HELM PEPTIDE1{P.Q.P.E.[O=C([C@H](Cc1ccc(OP(=O)(O)O)cc1)N[*:1])[*:2]].V.N.Q.P.D.V.R.D}$$$$V2.0)
- pKd (YES1 SH2 domain; [5]): 4.87
- pKd [2]: 5.24
- pKd [3]: 5.06

Structure (SMILES): CC(C)C[C@H](NC(=O)[C@H](CC(N)=O)NC(=O)[C@@H](N)CC(=O)O)C(=O)N[C@@H](Cc1ccc(O)cc1)C(=O)N[C@@H](Cc1ccc(OP(=O)(O)O)cc1)C(=O)N[C@@H](Cc1c[nH]c2ccccc12)C(=O)N[C@@H](CC(=O)O)C(=O)N[C@@H](CCC(N)=O)C(=O)N[C@@H](CC(=O)O)C(=O)N1CCC[C@H]1C(=O)N1CCC[C@H]1C(=O)N[C@@H](CCC(=O)O)C(=O)N[C@@H](CC(=O)O)C(=O)O [ErbB2 1222 13-mer] (HELM PEPTIDE1{D.N.L.Y.[O=C([C@H](Cc1ccc(OP(=O)(O)O)cc1)N[*:1])[*:2]].W.D.Q.D.P.P.E.D}$$$$V2.0)
- pKd (PIK3R1-N SH2 domain; [4]): 4.97
- pKd (YES1 SH2 domain; [5]): 5.82
- pKd (PLCG1-C SH2 domain; Protein PLCG1-C, FP saturation binding, mean over replicate hits): 6.11
- pKd [2]: 5.11
- pKd [3]: 5.02

Structure (SMILES): CSCC[C@H](NC(=O)[C@H](Cc1ccc(OP(=O)(O)O)cc1)NC(=O)[C@H](CCC(=O)O)NC(=O)[C@H](Cc1ccc(O)cc1)NC(=O)CNC(=O)[C@@H](N)CC(C)C)C(=O)N[C@@H](CC(=O)O)C(=O)N[C@H](C(=O)NCC(=O)N[C@@H](CO)C(=O)N[C@@H](CC(=O)O)C(=O)N[C@@H](CC(C)C)C(=O)N[C@@H](CC(=O)O)C(=O)O)C(C)C [ErbB3 1224 13-mer] (HELM PEPTIDE1{L.G.Y.E.[O=C([C@H](Cc1ccc(OP(=O)(O)O)cc1)N[*:1])[*:2]].M.D.V.G.S.D.L.D}$$$$V2.0)
- pKd (PTK6 SH2 domain; protein PTK6, FP, mean of replicate hits): 5.18
- pKd (YES1 SH2 domain; [6]): 5.60
- pKd [2]: 5.48

Structure (SMILES): CSCC[C@H](NC(=O)[C@H](CCC(=O)O)NC(=O)[C@H](CCC(=O)O)NC(=O)[C@H](Cc1ccc(OP(=O)(O)O)cc1)NC(=O)CNC(=O)[C@H](CCC(N)=O)NC(=O)[C@H](CCC(=O)O)NC(=O)[C@@H](N)CO)C(=O)N[C@@H](CCCNC(=N)N)C(=O)N[C@@H](C)C(=O)N[C@@H](Cc1ccccc1)C(=O)N[C@@H](CCC(N)=O)C(=O)N[C@@H](CC(=O)O)C(=O)O [ErbB3 1289 13-mer] (HELM PEPTIDE1{S.E.Q.G.[O=C([C@H](Cc1ccc(OP(=O)(O)O)cc1)N[*:1])[*:2]].E.E.M.R.A.F.Q.D}$$$$V2.0)
- pKd (PIK3R1-N SH2 domain; protein PIK3R1-N, FP, mean of replicate hits): 6.60
- pKd (YES1 SH2 domain; [6]): 5.23

Structure (SMILES): CSCC[C@H](NC(=O)[C@H](Cc1ccc(OP(=O)(O)O)cc1)NC(=O)CNC(=O)[C@H](CCC(=O)O)NC(=O)[C@H](CCC(=O)O)NC(=O)[C@H](CC(=O)O)NC(=O)[C@H](CC(C)C)NC(=O)[C@H](CCC(=O)O)NC(=O)CNC(=O)[C@H](CCCNC(=N)N)NC(=O)[C@@H]1CCCN1)C(=O)N[C@H](C(=O)N1CCC[C@H]1C(=O)N[C@@H](CCSC)C(=O)N[C@@H](CCCNC(=N)N)C(=O)N[C@@H](CC(=O)O)C(=O)N[C@@H](CCCCN)C(=O)N[C@@H](CC(=O)O)C(=O)O)[C@@H](C)O [ErbB4 1150 18-mer] (HELM PEPTIDE1{P.R.G.E.L.D.E.E.G.[O=C([C@H](Cc1ccc(OP(=O)(O)O)cc1)N[*:1])[*:2]].M.T.P.M.R.D.K.D}$$$$V2.0)
- pKd ([1]; protein RASA1-NC, FP, mean of replicate hits): 6.39
- pKd (PLCG1-C SH2 domain; protein PLCG1-C, FP, mean of replicate hits): 5.51

Structure (SMILES): CC(C)C[C@H](NC(=O)[C@H](Cc1ccc(OP(=O)(O)O)cc1)NC(=O)[C@H](CC(C)C)NC(=O)[C@@H]1CCCN1C(=O)[C@H](CCC(=O)O)NC(=O)[C@H](CC(N)=O)NC(=O)[C@@H](NC(=O)[C@H](Cc1ccc(O)cc1)NC(=O)[C@H](CCC(=O)O)NC(=O)[C@H](CC(=O)O)NC(=O)[C@@H](N)CCC(=O)O)C(C)C)C(=O)N[C@@H](CC(N)=O)C(=O)N[C@H](C(=O)N[C@@H](Cc1ccccc1)C(=O)N[C@@H](C)C(=O)N[C@@H](CC(N)=O)C(=O)N[C@H](C(=O)N[C@@H](CC(=O)O)C(=O)O)[C@@H](C)O)[C@@H](C)O [ErbB4 1208 18-mer] (HELM PEPTIDE1{E.D.E.Y.V.N.E.P.L.[O=C([C@H](Cc1ccc(OP(=O)(O)O)cc1)N[*:1])[*:2]].L.N.T.F.A.N.T.D}$$$$V2.0)
- pKd (PTK6 SH2 domain; protein PTK6, mean of replicate hits): 4.81
- pKd ([1]; protein RASA1-NC, mean of replicate hits): 5.19
- pKd (PLCG1-C SH2 domain; protein PLCG1-C, mean of replicate hits): 5.68
